Measurements as given in PubChem BioAssay (NCI).
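Five compound concentrations were applied to cells in 96-well plates for 48 hours; endpoints were derived by simple linear interpolation of the resulting dose-response curve. Here, GI50 denotes the concentration required for 50% inhibition of growth. Definition used: TGI = concentration required for complete inhibition of growth.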

How the values were obtained:
Assay in all cases: NCI tumour cell line growth inhibition, 48 h
[1] = system: OVCAR-5 ovarian
[2] = system: CCRF-CEM leukemia
[3] = system: OVCAR-3 ovarian
[4] = system: SNB-19 CNS
[5] = system: SNB-75 CNS
[6] = system: MOLT-4 leukemia
[7] = system: COLO 205 colon
[8] = system: HCT-116 colon
[9] = system: NCI/ADR-RES ovarian
[10] = system: HT29 colon
[11] = system: OVCAR-8 ovarian
[12] = system: HCC-2998 colon
[13] = system: CAKI-1 renal
[14] = system: PC-3 prostate
[15] = system: K-562 leukemia
[16] = system: SK-MEL-2 melanoma
[17] = system: ACHN renal
[18] = system: BT-549 breast
[19] = system: M14 melanoma
[20] = system: SK-MEL-28 melanoma
[21] = system: A498 renal
[22] = system: RPMI-8226 leukemia
[23] = system: HS 578T breast
[24] = system: HCT-15 colon
[25] = system: SF-268 CNS
[26] = system: LOX IMVI melanoma
[27] = system: NCI-H226 lung
[28] = system: SF-539 CNS
[29] = system: TK-10 renal
[30] = system: OVCAR-4 ovarian
[31] = system: MDA-MB-231 breast
[32] = system: NCI-H522 lung
[33] = system: MCF7 breast
[34] = system: MDA-MB-435
[35] = system: 786-0 renal
[36] = system: KM12 colon
[37] = system: MALME-3M melanoma
[38] = system: NCI-H460 lung
[39] = system: A549 NSCLC
[40] = system: HOP-92 NSCLC
[41] = system: HOP-62 NSCLC
[42] = system: NCI-H23 lung
[43] = system: DU-145 prostate
[44] = system: SR leukemia
[45] = system: UACC-62 melanoma
[46] = system: SK-MEL-5 melanoma
[47] = system: SW-620 colon
[48] = system: SN12C renal
[49] = system: SK-OV-3 ovarian
[50] = system: IGROV1 ovarian
[51] = system: T-47D breast
[52] = system: RXF 393 renal
[53] = system: UO-31 renal
[54] = system: HL-60(TB) leukemia

Cn1ncnc1[C@@H]1c2n[nH]c(=O)c3cc(F)cc(c23)N[C@H]1c1ccc(F)cc1
GI50 [1]: > 100 µM
TGI [1]: > 100 µM
GI50 [2]: 91.6 µM
TGI [2]: > 100 µM
GI50 [3]: > 100 µM
TGI [3]: > 100 µM
GI50 [4]: > 100 µM
TGI [4]: > 100 µM
GI50 [5]: > 100 µM
TGI [5]: > 100 µM
GI50 [6]: > 100 µM
TGI [6]: > 100 µM
GI50 [7]: > 100 µM
TGI [7]: > 100 µM
GI50 [8]: > 100 µM
TGI [8]: > 100 µM
GI50 [9]: > 100 µM
TGI [9]: > 100 µM
GI50 [10]: > 100 µM
TGI [10]: > 100 µM
GI50 [11]: > 100 µM
TGI [11]: > 100 µM
GI50 [12]: > 100 µM
TGI [12]: > 100 µM
GI50 [13]: 91.5 µM
TGI [13]: > 100 µM
GI50 [14]: > 100 µM
TGI [14]: > 100 µM
GI50 [15]: > 100 µM
TGI [15]: > 100 µM
GI50 [16]: > 100 µM
TGI [16]: > 100 µM
GI50 [17]: > 100 µM
TGI [17]: > 100 µM
GI50 [18]: > 100 µM
TGI [18]: > 100 µM
GI50 [19]: > 100 µM
TGI [19]: > 100 µM
GI50 [20]: > 100 µM
TGI [20]: > 100 µM
GI50 [21]: > 100 µM
TGI [21]: > 100 µM
GI50 [22]: > 100 µM
TGI [22]: > 100 µM
GI50 [23]: > 100 µM
TGI [23]: > 100 µM
GI50 [24]: > 100 µM
TGI [24]: > 100 µM
GI50 [25]: > 100 µM
TGI [25]: > 100 µM
GI50 [26]: > 100 µM
TGI [26]: > 100 µM
GI50 [27]: > 100 µM
TGI [27]: > 100 µM
GI50 [28]: > 100 µM
TGI [28]: > 100 µM
GI50 [29]: > 100 µM
TGI [29]: > 100 µM
GI50 [30]: > 100 µM
TGI [30]: > 100 µM
GI50 [31]: > 100 µM
TGI [31]: > 100 µM
GI50 [32]: > 100 µM
TGI [32]: > 100 µM
GI50 [33]: > 100 µM
TGI [33]: > 100 µM
GI50 [34]: > 100 µM
TGI [34]: > 100 µM
GI50 [35]: > 100 µM
TGI [35]: > 100 µM
GI50 [36]: > 100 µM
TGI [36]: > 100 µM
GI50 [37]: > 100 µM
TGI [37]: > 100 µM
GI50 [38]: 78.4 µM
TGI [38]: > 100 µM
GI50 [39]: > 100 µM
TGI [39]: > 100 µM
GI50 [40]: 92.6 µM
TGI [40]: > 100 µM
GI50 [41]: > 100 µM
TGI [41]: > 100 µM
GI50 [42]: > 100 µM
TGI [42]: > 100 µM
GI50 [43]: > 100 µM
TGI [43]: > 100 µM
GI50 [44]: 33.2 µM
TGI [44]: > 100 µM
GI50 [45]: > 100 µM
TGI [45]: > 100 µM
GI50 [46]: > 100 µM
TGI [46]: > 100 µM
GI50 [47]: > 100 µM
TGI [47]: > 100 µM
GI50 [48]: > 100 µM
TGI [48]: > 100 µM
GI50 [49]: > 100 µM
TGI [49]: > 100 µM
GI50 [50]: > 100 µM
TGI [50]: > 100 µM
GI50 [51]: > 100 µM
TGI [51]: > 100 µM
GI50 [52]: > 100 µM
TGI [52]: > 100 µM
GI50 [53]: 83.3 µM
TGI [53]: > 100 µM
GI50 [54]: > 100 µM
TGI [54]: > 100 µM
